Key:
human SOS1 = human SOS1 (Homo sapiens (Human), UniProt Q07889); experiment: Surface Plasmon Resonance (SPR) SOS1 Binding Assay; settings: biotinylated SOS1 (res. 564-1049), Biacore 8K, 25° C., kinetic or steady state fit, 1:1 binding; read-out: hSOS1 KD
Procedure, shortened: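 Biotinylated Avi-tagged human SOS1 (res. 564-1049) captured on streptavidin chip (~3,000 RU); compounds injected 60 s, dissociation 600 s, at 25° C in Tris pH 8.0 buffer with 5% DMSO. Reference- and blank-subtracted; KD from kinetic or steady-state 1:1 binding fit.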

[1] = molecular target: SOS1:KRAS (G12C) interaction (Homo sapiens (Human), UniProt Q07889); experiment: SOS1 KRas(G12C) FRET Assay; assay type: binding; settings: 0.5 nM His10-SOS1 (res. 564-1049), 2.5 nM GST-KRAS G12C (res. 1-169), 2 hrs at RT
Procedure, shortened: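 GST-KRAS G12C (res. 1-169) at 2.5 nM and His10-SOS1 (res. 564-1049) at 0.5 nM, final, in PBS with 0.1% BSA, 5 mM MgCl2, 100 mM KF, 5 mM DTT and 0.5% DMSO. After 2 h at RT, FRET read at 665/615 nm and normalized to DMSO and no-SOS1 controls. IC50 by non-linear regression.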

Sequence of human SOS1 (Q07889 564-1049): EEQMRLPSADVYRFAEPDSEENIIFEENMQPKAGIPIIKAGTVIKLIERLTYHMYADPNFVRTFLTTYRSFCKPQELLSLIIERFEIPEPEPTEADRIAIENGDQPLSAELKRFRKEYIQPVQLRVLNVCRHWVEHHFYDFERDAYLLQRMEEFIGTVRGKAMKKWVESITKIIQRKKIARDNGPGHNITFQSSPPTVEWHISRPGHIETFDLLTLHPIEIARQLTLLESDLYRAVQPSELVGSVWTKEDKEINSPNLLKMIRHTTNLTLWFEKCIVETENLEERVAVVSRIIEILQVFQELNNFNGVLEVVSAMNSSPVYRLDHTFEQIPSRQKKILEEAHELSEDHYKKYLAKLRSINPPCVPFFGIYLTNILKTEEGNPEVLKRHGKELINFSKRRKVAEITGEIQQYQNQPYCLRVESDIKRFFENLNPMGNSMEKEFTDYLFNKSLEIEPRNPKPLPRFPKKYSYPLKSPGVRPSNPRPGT
Sequence of SOS1:KRAS (G12C) interaction (Q07889 564-1049, stated change not applied): as the sequence (Q07889 564-1049) above

Kd (human SOS1) [nM] | IC50 [1] [nM] | Compound
12 | 13.9 | [2H]C([2H])([2H])N1C[C@@H]2[C@H](C1)[C@H]2Nc1cc(=O)n(C23CC(C2)C3)cc1C(=O)N[C@H](C)c1cccc(C(F)F)c1F [Example 91, 1-(bicyclo[1.1.1]pentan-1-yl)-N-((R)-1-(3-(difluoromethyl)-2-fluorophenyl)ethyl)-4-(((1R,5S,6s)-3-(methyl-d3)-3-azabicyclo[3.1.0]hexan-6-yl)amino)-6-oxo-1,6-dihydropyridine-3-carboxamide]
13 | 23.2 | C[C@@H](NC(=O)c1cn([C@H]2CC2(F)F)c(=O)cc1N[C@H]1[C@@H]2CN(C)C[C@@H]21)c1cccc(C(F)F)c1F [Example 93, 1-((S)-2,2-difluorocyclopropyl)-N-((R)-1-(3-(difluoromethyl)-2-fluorophenyl)ethyl)-4-(((lR,5S,6s)-3-methyl-3-azabicyclo[3.1.0]hexan-6-yl)amino)-6-oxo-1,6-dihydropyridine-3-carboxamide]
12 | 21.6 | C[C@@H](NC(=O)c1cn([C@H]2CC2(C)C)c(=O)cc1N[C@H]1[C@@H]2CN(C)C[C@@H]21)c1cccc(C(F)F)c1F [Example 95, N-((R)-1-(3-(difluoromethyl)-2-fluorophenyl)ethyl)-1-((S)-2,2-dimethylcyclopropyl)-4-(((lR,5S,6s)-3-methyl-3-azabicyclo[3.1.0]hexan-6-yl)amino)-6-oxo-1,6-dihydropyridine-3-carboxamide]
9 | 15.7 | C[C@@H](NC(=O)c1cn([C@H]2C[C@@H](F)C2)c(=O)cc1N[C@H]1[C@@H]2CN(C)C[C@@H]21)c1cccc(C(F)F)c1F [Example 96, N-((R)-1-(3-(difluoromethyl)-2-fluorophenyl)ethyl)-1-((1s,3S)-3-fluorocyclobutyl)-4-(((1R,5S,6s)-3-methyl-3-azabicyclo[3.1.0]hexan-6-yl)amino)-6-oxo-1,6-dihydropyridine-3-carboxamide]
7 | 16.7 | C[C@@H](NC(=O)c1cn([C@H]2C[C@H](F)C2)c(=O)cc1N[C@H]1[C@@H]2CN(C)C[C@@H]21)c1cccc(C(F)F)c1F [Example 97, N-((R)-1-(3-(difluoromethyl)-2-fluorophenyl)ethyl)-1-((1r,3R)-3-fluorocyclobutyl)-4-(((1R,5S,6s)-3-methyl-3-azabicyclo[3.1.0]hexan-6-yl)amino)-6-oxo-1,6-dihydropyridine-3-carboxamide]
6 | 13.4 | C[C@@H](NC(=O)c1cn(C23CC(C)(C2)C3)c(=O)cc1N[C@H]1[C@@H]2CN(C)C[C@@H]21)c1cccc(C(F)F)c1F [Example 98, N-((R)-1-(3-(difluoromethyl)-2-fluorophenyl)ethyl)-4-(((1R,5S,6s)-3-methyl-3-azabicyclo[3.1.0]hexan-6-yl)amino)-1-(3-methylbicyclo[1.1.1]pentan-1-yl)-6-oxo-1,6-dihydropyridine-3-carboxamide]
30 | 64.8 | CC(C)n1cc(C(=O)N[C@H](C)c2cccc(C(F)F)c2F)c(N[C@H]2[C@@H]3CN(C)C[C@@H]32)cc1=O [Example 99, N-((R)-1-(3-(difluoromethyl)-2-fluorophenyl)ethyl)-1-isopropyl-4-(((1R,5S,6s)-3-methyl-3-azabicyclo[3.1.0]hexan-6-yl)amino)-6-oxo-1,6-dihydropyridine-3-carboxamide]
10 | 18.2 | C[C@@H](NC(=O)c1cn(C2CC(F)(F)C2)c(=O)cc1N[C@H]1[C@@H]2CN(C)C[C@@H]21)c1cccc(C(F)F)c1F [Example 100, 1-(3,3-difluorocyclobutyl)-N-((R)-1-(3-(difluoromethyl)-2-fluorophenyl)ethyl)-4-(((1R,5S,6s)-3-methyl-3-azabicyclo[3.1.0]hexan-6-yl)amino)-6-oxo-1,6-dihydropyridine-3-carboxamide]
11 | 24 | C[C@@H](NC(=O)c1cn(C2CC2)c(=O)cc1N[C@H]1[C@@H]2CN(C)C[C@@H]21)c1cccc(C(F)F)c1F [Example 101, 1-cyclopropyl-N-((R)-1-(3-(difluoromethyl)-2-fluorophenyl)ethyl)-4-(((1R,5S,6s)-3-methyl-3-azabicyclo[3.1.0]hexan-6-yl)amino)-6-oxo-1,6-dihydropyridine-3-carboxamide]
8 | 12.1 | C[C@@H](NC(=O)c1cn(C23CC(F)(C2)C3)c(=O)cc1N[C@H]1[C@@H]2CN(C)C[C@@H]21)c1cccc(C(F)F)c1F [Example 102, N-((R)-1-(3-(difluoromethyl)-2-fluorophenyl)ethyl)-1-(3-fluorobicyclo[1.1.1]pentan-1-yl)-4-(((1R,5S,6s)-3-methyl-3-azabicyclo[3.1.0]hexan-6-yl)amino)-6-oxo-1,6-dihydropyridine-3-carboxamide]
9 | 13 | C[C@@H](NC(=O)c1cn(C23CC(C(F)F)(C2)C3)c(=O)cc1N[C@H]1[C@@H]2CN(C)C[C@@H]21)c1cccc(C(F)F)c1F [Example 105, N-((R)-1-(3-(difluoromethyl)-2-fluorophenyl)ethyl)-1-(3-(difluoromethyl)bicyclo [1. 1.1]pentan-1-yl)-4-(((1R,5S,6s)-3-methyl-3-azabicyclo[3.1.0]hexan-6-yl)amino)-6-oxo-1,6-dihydropyridine-3-carboxamide]
19 | 16.8 | C[C@@H](NC(=O)c1cn(C23CC(C(F)(F)F)(C2)C3)c(=O)cc1N[C@H]1[C@@H]2CN(C)C[C@@H]21)c1cccc(C(F)F)c1F [Example 106, N-((R)-1-(3-(difluoromethyl)-2-fluorophenyl)ethyl)-4-(((1R,5S,6s)-3-methyl-3-azabicyclo[3.1.0]hexan-6-yl)amino)-6-oxo-1-(3-(trifluoromethyl)bicyclo[1. 1.1]pentan-1-yl)-1,6-dihydropyridine-3-carboxamide]
3 | 8.4 | C[C@@H](NC(=O)c1cn(C2CC3(CC3)C2)c(=O)cc1N[C@H]1[C@@H]2CN(C)C[C@@H]21)c1cccc(C(F)F)c1F [Example 107, N-((R)-1-(3-(difluoromethyl)-2-fluorophenyl)ethyl)-4-(((1R,5S,6s)-3-methyl-3-azabicyclo[3.1.0]hexan-6-yl)amino)-6-oxo-1-(spiro[2.3]hexan-5-yl)-1,6-dihydropyridine-3-carboxamide]
343 | 147 | C[C@@H](NC(=O)c1cn(C(C)(C)C2CC2)c(=O)cc1N[C@H]1[C@@H]2CN(C)C[C@@H]21)c1cccc(C(F)F)c1F [Example 108, 1-(2-cyclopropylpropan-2-yl)-N-((R)-1-(3-(difluoromethyl)-2-fluorophenyl)ethyl)-4-(((1R,5S,6s)-3-methyl-3-azabicyclo[3.1.0]hexan-6-yl)amino)-6-oxo-1,6-dihydropyridine-3-carboxamide]
6 | 10.5 | C[C@@H](NC(=O)c1cn([C@H]2C[C@@H]2C(F)F)c(=O)cc1N[C@H]1[C@@H]2CN(C)C[C@@H]21)c1cccc(C(F)F)c1F [Example 113, N-((R)-1-(3-(difluoromethyl)-2-fluorophenyl)ethyl)-1-((1S,2S)-2-(difluoromethyl)cyclopropyl)-4-(((1R,5S,6s)-3-methyl-3-azabicyclo[3.1.0]hexan-6-yl)amino)-6-oxo-1,6-dihydropyridine-3-carboxamide]
13 | 21.1 | C[C@@H](NC(=O)c1cn([C@@H]2C[C@H]2C(F)F)c(=O)cc1N[C@H]1[C@@H]2CN(C)C[C@@H]21)c1cccc(C(F)F)c1F [Example 114, N-((R)-1-(3-(difluoromethyl)-2-fluorophenyl)ethyl)-1-((1R,2R)-2-(difluoromethyl)cyclopropyl)-4-(((1R,5S,6s)-3-methyl-3-azabicyclo[3.1.0]hexan-6-yl)amino)-6-oxo-1,6-dihydropyridine-3-carboxamide]
23 | 36.6 | C[C@@H](NC(=O)c1cn(C2(C(F)(F)F)CC2)c(=O)cc1N[C@H]1[C@@H]2CN(C)C[C@@H]21)c1cccc(C(F)F)c1F [Example 119, N-((R)-1-(3-(difluoromethyl)-2-fluorophenyl)ethyl)-4-(((1R,5S,6s)-3-methyl-3-azabicyclo[3.1.0]hexan-6-yl)amino)-6-oxo-1-(1-(trifluoromethyl)cyclopropyl)-1,6-dihydropyridine-3-carboxamide]
21 | 28.9 | C[C@@H](NC(=O)c1cn(C2(C(F)F)CC2)c(=O)cc1N[C@H]1[C@@H]2CN(C)C[C@@H]21)c1cccc(C(C)(F)F)c1F [Example 121, N-((R)-1-(3-(1,1-difluoroethyl)-2-fluorophenyl)ethyl)-1-(1-(difluoromethyl)cyclopropyl)-4-(((1R,5S,6s)-3-methyl-3-azabicyclo[3.1.0]hexan-6-yl)amino)-6-oxo-1,6-dihydropyridine-3-carboxamide]

Compound | Kd (human SOS1) [nM] | IC50 [1] [nM]
C[C@@H](NC(=O)c1cn(C23CC(C2)C3)c(=O)cc1N[C@H]1[C@@H]2CN(C)C[C@@H]21)c1cccc(C(F)F)c1F [Example 90, 1-(bicyclo[1.1.1]pentan-1-yl)-N-((R)-1-(3-(difluoromethyl)-2-fluorophenyl)ethyl)-4-(((1R,5S,6s)-3-methyl-3-azabicyclo[3.1.0]hexan-6-yl)amino)-6-oxo-1,6-dihydropyridine-3-carboxamide] | 9 | 13.4

From US20230348424A1, “HETEROCYCLIC COMPOUNDS AND METHODS OF USE” (Schrödinger, Inc., priority 2022, published 2023)
